In US20240109903A1, “SUBSTITUTED HETEROCYCLES FOR TREATING CANCER” (Northwestern University, priority 2022, published 2024):
pIC50: −log10 of the molar value. Like-named read-outs stand apart in the source and are kept apart here.

Legend:
OVCAR-8 = assay: NCI 60 five-dose screen OVCAR-8; assay type: cell-based; details: Homo sapiens; for CC50: read-out: LC50 (the source's name) (converted)
MDA-MB-468 = assay: NCI 60 five-dose screen MDA-MB-468; assay type: cell-based; details: Homo sapiens; for CC50: read-out: LC50 (the source's name) (converted)
NCI-H23 = assay: NCI 60 five-dose screen NCI-H23; assay type: cell-based; details: Homo sapiens; for CC50: read-out: LC50 (the source's name) (converted)
RPMI-8226 = assay: NCI 60 five-dose screen RPMI-8226; assay type: cell-based; details: Homo sapiens; for CC50: read-out: LC50 (the source's name)
OVCAR-4 = assay: NCI 60 five-dose screen OVCAR-4; assay type: cell-based; details: Homo sapiens; for CC50: read-out: LC50 (the source's name) (converted)
SK-OV-3 = assay: NCI 60 five-dose screen SK-OV-3; assay type: cell-based; details: Homo sapiens; for CC50: read-out: LC50 (the source's name) (converted)
T-47D = assay: NCI 60 five-dose screen T-47D; assay type: cell-based; details: Homo sapiens, T47D; for CC50: read-out: LC50 (the source's name)
NCI-H322M = assay: NCI 60 five-dose screen NCI-H322M; assay type: cell-based; details: Homo sapiens; for CC50: read-out: LC50 (the source's name) (converted)
SF-295 = assay: NCI 60 five-dose screen SF-295; assay type: cell-based; details: Homo sapiens; for CC50: read-out: LC50 (the source's name) (converted)
SF-268 = assay: NCI 60 five-dose screen SF-268; assay type: cell-based; details: Homo sapiens; for CC50: read-out: LC50 (the source's name) (converted)
[1] = system: MV-4-11 acute myeloid leukemia cells; assay: CellTiter-Glo 2.0 cell viability, MV-4-11; assay type: cell-based; details: Homo sapiens; for IC50: MV4-11, 72 h, MV-4-11 cells, 3 days, CellTiter-Glo 2.0, read-out: IC50 (uM) [Cell Type: MV-4-11]; for pIC50: MV4-11, bound stated in text, read-out: IC50 against MV-4-11 acute myeloid leukemia cells
Protocol: 2019 October; 94(4): 1813-1823.
Cell viability was assessed using the CellTiter-Glo 2.0 assay from Promega, which yields a signal proportional to the amount of ATP present in a cell population. Compounds were first dispensed into empty 96-well flat-bottom tissue culture-treated plates (Corning) using an Echo550. MV4-1 cells were diluted to a density of 0.1 million cells per ml, pipetted onto the compounds at a density of 1,000 cells per well for U937 and 3,000 cells per well for MV4-11, mixed, and incubated for 3 days at 37° C. with 5% C02. After incubating, 5 μl of cells from each well were added to 5 μl of CellTiter-Glo 2.0 reagent in a384-well white ProxiPlate (PerkinElmer), incubated for 20 minutes at ambient temperature, and luminescence was analyzed on an EnSpire plate reader. Graphing and regression analysis was performed in Graphpad Prism.

SR = assay: NCI 60 five-dose screen SR; assay type: cell-based, human; details: for GI50 / pIC50 / CC50: Homo sapiens; for CC50: read-out: LC50 (the source's name)

## FC(F)(F)CN1CCN(CCn2c(C(F)(F)F)cc3c(Cl)ncnc32)CC1 [NUCC-0226683]
OVCAR-8; five-dose
  GI50: 3.24 µM
  pIC50: 5.35
  IC (TGI): 11.7 µM
  CC50: 40.7 µM
MDA-MB-468; five-dose
  GI50: 2.19 µM
  pIC50: 5.22
  IC (TGI): 4.9 µM
  CC50: 14.1 µM
NCI-H23; five-dose
  GI50: 5.89 µM
  pIC50: 4.83
  IC (TGI): 26.9 µM
  CC50: ≥ 100 µM
RPMI-8226; five-dose
  GI50: 23.4 µM
  pIC50: 4.40
  IC (TGI): 77.6 µM
  CC50: ≥ 100 µM
OVCAR-4; five-dose
  GI50: 26.9 µM
  pIC50: 4.05
  IC (TGI): 100 µM
  CC50: ≥ 100 µM
SK-OV-3; five-dose
  GI50: 16.2 µM
  pIC50: 4.41
  IC (TGI): 43.7 µM
  CC50: ≥ 100 µM
T-47D; five-dose
  GI50: 17.4 µM
  pIC50: 4.31
  IC (TGI): 63.1 µM
  CC50: ≥ 100 µM
NCI-H322M; five-dose
  GI50: 5.5 µM
  pIC50: 4.80
  IC (TGI): 19.1 µM
  CC50: 44.7 µM
SF-295; five-dose
  GI50: 10.2 µM
  pIC50: 4.75
  IC (TGI): 25.7 µM
  CC50: 64.6 µM
SF-268; five-dose
  GI50: 5.25 µM
  pIC50: 4.94
  IC (TGI): 21.4 µM
  CC50: 70.8 µM
[1]
  IC50: 1.83 µM
  pIC50: > 5.70
SR; five-dose
  GI50: 2.14 µM
  pIC50: 5.45
  CC50: ≥ 100 µM

## Fc1ccc(N2CC(Cn3c(C(F)(F)F)cc4c(Cl)ncnc43)C2)c(F)c1 [NUCC-0226695]
OVCAR-8
  GI50: 2.14 µM
  pIC50: 5.46
  IC (TGI): 5.01 µM
  CC50: 19.1 µM
MDA-MB-468
  GI50: 1.62 µM
  pIC50: 5.47
  IC (TGI): 3.24 µM
  CC50: 6.31 µM
NCI-H23
  GI50: 2.63 µM
  pIC50: 5.31
  IC (TGI): 8.32 µM
  CC50: 30.9 µM
RPMI-8226
  GI50: 23.4 µM
  pIC50: 4.43
  IC (TGI): 64.6 µM
  CC50: ≥ 100 µM
OVCAR-4
  GI50: 12.9 µM
  pIC50: 4.61
  IC (TGI): 26.9 µM
  CC50: 56.2 µM
SK-OV-3
  GI50: 14.5 µM
  pIC50: 4.54
  IC (TGI): 29.5 µM
  CC50: 60.3 µM
T-47D
  GI50: 13.8 µM
  pIC50: 4.36
  IC (TGI): 67.6 µM
  CC50: ≥ 100 µM
NCI-H322M
  GI50: 10.7 µM
  pIC50: 4.69
  IC (TGI): 22.9 µM
  CC50: 47.9 µM
SF-295
  GI50: 11.5 µM
  pIC50: 4.70
  IC (TGI): 24.5 µM
  CC50: 52.5 µM
SF-268
  GI50: 3.16 µM
  pIC50: 5.25
  IC (TGI): 11.2 µM
  CC50: 47.9 µM
[1]
  IC50: 0.739 µM
  pIC50: > 5.70
SR
  TGI: 5.16 −log[M]
  GI50: 2.14 µM
  pIC50: 5.47
  CC50: ≥ 100 µM

## O=c1ccc(Cn2c(C(F)(F)F)cc3c(Cl)ncnc32)c[nH]1 [NUCC-0226698]
OVCAR-8
  GI50: 3.55 µM
  pIC50: 5.32
  IC (TGI): 17.4 µM
  CC50: ≥ 100 µM
MDA-MB-468
  GI50: 2.09 µM
  pIC50: 5.09
  IC (TGI): 5.75 µM
  CC50: 25.1 µM
NCI-H23
  GI50: 3.98 µM
  pIC50: 5.06
  IC (TGI): 18.6 µM
  CC50: 72.4 µM
RPMI-8226
  GI50: 22.9 µM
  pIC50: 4.42
  IC (TGI): 100 µM
  CC50: ≥ 100 µM
OVCAR-4
  GI50: 17.8 µM
  pIC50: 4.44
  IC (TGI): 44.7 µM
  CC50: ≥ 100 µM
SK-OV-3
  GI50: 44.7 µM
  pIC50: 4.00
  IC (TGI): 100 µM
  CC50: ≥ 100 µM
T-47D
  GI50: 30.2 µM
  pIC50: 4.10
  IC (TGI): 100 µM
  CC50: ≥ 100 µM
NCI-H322M
  GI50: 14.1 µM
  pIC50: 4.49
  IC (TGI): 39.8 µM
  CC50: ≥ 100 µM
SF-295
  GI50: 28.2 µM
  pIC50: 4.30
  IC (TGI): 100 µM
  CC50: ≥ 100 µM
SF-268
  GI50: 10.7 µM
  pIC50: 4.68
  IC (TGI): 28.8 µM
  CC50: 79.4 µM
[1]
  IC50: 1.26 µM
  pIC50: > 5.70
SR
  TGI: 4.93 −log[M]
  GI50: 2.75 µM
  pIC50: 5.41
  CC50: ≥ 100 µM
